# Calls of active or inactive are those of the source.
# Columns and labels:
# [1] = general mammalian cell viability loss – inhibitor set, cherry-pick, set 2, cytotoxicity control for miR-122 modulator project, dose response (AID 720697); type: functional, cell-based
# [2] = viability loss of HMLE_sh_eGFP cells – cell-based, luminescence, counter-screen for HMLE_sh_ECad selective toxicity project, dose response (AID 463074); type: functional, Homo sapiens;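 note: HMLE human mammary epithelial cells expressing control shRNA against eGFP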
# [3] = Luminescence Cell-Based Dose Retest to Confirm Inhibitors of Cancer Stem Cells. [Related pubchem assays (depositor defined):AID2717, AID2721]; type: functional; details: Homo sapiens
# [4] = target: T1, Probable nicotinate-nucleotide adenylyltransferase (Staphylococcus aureus (strain N315), UniProt P65502); type: functional, Staphylococcus aureus subsp. aureus N315;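 for IC50 Mean: confirmatory dose-response retesting of NadD inhibitor hits first found in an ultra-high-throughput screen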
# [5] = target: T1, Probable nicotinate-nucleotide adenylyltransferase; type: functional, Staphylococcus aureus subsp. aureus N315; details: read-out: IC50_Mean
# [6] = general cell-killing toxicity readout – plate reader, dry powder samples, cytotoxicity control for PAX8 inhibitor project, dose response (AID 743021); type: functional, cell-based
# [7] = target: Caspase-6 (Homo sapiens, UniProt P55212); assay: inhibition of CASP6 peptide cleavage – biochemical, VEID-R110 fluorescence, cherry-pick, dose response (AID 720632)
# [8] = T. cruzi growth inhibition in host cells, dose response, cell-based, plate reader, dry powder, set 2 (AID 652275); type: functional
# [9] = target: T2, Low molecular weight phosphotyrosine protein phosphatase (Homo sapiens, UniProt P24666); type: functional; details: read-out: IC50_Mean
# T2 sequence (P24666 whole entry): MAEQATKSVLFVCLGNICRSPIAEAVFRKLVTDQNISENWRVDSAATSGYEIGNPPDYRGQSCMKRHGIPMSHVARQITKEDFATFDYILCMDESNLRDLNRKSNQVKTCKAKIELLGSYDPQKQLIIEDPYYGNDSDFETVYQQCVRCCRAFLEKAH
# [10] = target: T2, Low molecular weight phosphotyrosine protein phosphatase; type: functional; details: read-out: IC50_Mean; remark: listed apart in the source
# [11] = target: 1-phosphatidylinositol 4,5-bisphosphate phosphodiesterase gamma-1 (Homo sapiens, UniProt P19174); assay: Counterscreen for inhibitors of phospholipase C isozymes (PLC-B3): Fluorescence-based biochemical high throughput dose response assay to identify inhibitors of phospholipase C isozymes (PLC-gamma1).
# [12] = target: 1-phosphatidylinositol 4,5-bisphosphate phosphodiesterase beta-3 (Homo sapiens, UniProt Q01970); assay: Fluorescence-based biochemical high throughput dose response assay to identify inhibitors of phospholipase C isozymes (PLC-B3).
# [13] = target: Albumin (Bos taurus, UniProt P02769); assay: Counterscreen for inhibitors of T-cell receptor (TCR)-CD3 interaction: Fluorescence-based biochemical high throughput dose response assay to identify inhibitors of T-cell receptor (TCR)-CD3 interaction using a TAMRA-labeled BSA probe.; type: functional
# [14] = target: Protein Wnt-3a (Mus musculus, UniProt P27467); assay: SAR analysis of small molecule antagonists of Gli-SUFU in a Wnt3a luminescent reporter assay.; type: functional
# [15] = NIH3T3 cell viability loss – ATP luminescence, mouse fibroblasts, counter-screen, dose response (AID 2010); type: functional, cell-based;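 note: cells exposed to compound for about 90 hours before reading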
# [16] = target: Galanin receptor type 3 (Homo sapiens, UniProt O60755); assay: Fluorescence-based cell-based primary high throughput dose response assay to identify antagonists of the Galanin Receptor 3 (GalR3).; type: functional
# [17] = cells; type: functional, cell-based; details: HEK-CNG
# [18] = Trypanosoma cruzi growth suppression in host cells – NIH3T3 host cells, beta-gal luminescence, confirmation (AID 2044); type: functional, cell-based;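 note: intracellular parasites grown in NIH/3T3 mouse fibroblasts as host cells; luminescent beta-galactosidase reporter signal from transgenic T. cruzi replicating inside host cells; inhibitors lower the luminescence signal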
# [19] = target: Genome polyprotein (dengue virus type 2, UniProt P29990); assay: flavivirus cap methylation enzyme inhibition – biochemical, confirmation dose response, primary screen (AID 588689); type: functional
# [20] = target: FAD-linked sulfhydryl oxidase ALR (Homo sapiens, UniProt P55789); assay: ALR-catalysed DTT oxidation blockers – biochemical, H2O2 detection, luminescence, cherry-pick, dose response (AID 493248)
# [21] = target: Large T antigen (Simian virus 40, UniProt P03070); type: functional, Betapolyomavirus macacae;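 note: Confirmatory-stage PubChem screen for compounds that inhibit SV40 T antigen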
# [22] = target: T3, Carboxy-terminal domain RNA polymerase II polypeptide A small phosphatase 1 (Homo sapiens, UniProt Q9GZU7); assay: CTDSP1 inhibitors, concentration-response, biochemical, absorbance readout, ultra-high-throughput screen actives (AID 540297); type: functional
# T3 sequence (Q9GZU7 whole entry): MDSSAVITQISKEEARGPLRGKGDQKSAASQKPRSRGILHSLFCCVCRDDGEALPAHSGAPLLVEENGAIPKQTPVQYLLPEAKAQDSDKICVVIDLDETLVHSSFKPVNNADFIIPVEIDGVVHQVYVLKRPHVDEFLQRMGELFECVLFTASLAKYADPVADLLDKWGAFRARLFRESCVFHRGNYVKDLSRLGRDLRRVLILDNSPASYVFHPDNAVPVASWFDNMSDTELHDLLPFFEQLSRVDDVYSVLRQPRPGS
# [23] = target: DNA (cytosine-5)-methyltransferase 1 (Homo sapiens, UniProt P26358); assay: inhibition of DNA methylation by DNMT1 – biochemical, fluorescent molecular beacon, confirmation (AID 602386); type: functional
# [24] = target: T4, Sentrin-specific protease 8 (Homo sapiens, UniProt Q96LD8); type: functional;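 note: kinetic enzyme assay of SENP8 cleaving a Nedd8 protein substrate, dose-response confirmation of screening hits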
# T4 sequence (Q96LD8 whole entry): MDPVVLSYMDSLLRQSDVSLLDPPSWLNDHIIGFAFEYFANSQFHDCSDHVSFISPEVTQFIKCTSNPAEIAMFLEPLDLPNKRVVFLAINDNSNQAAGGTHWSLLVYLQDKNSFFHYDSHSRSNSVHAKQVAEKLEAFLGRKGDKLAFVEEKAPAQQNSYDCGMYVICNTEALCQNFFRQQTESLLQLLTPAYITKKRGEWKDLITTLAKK
# [25] = target: T5, Interleukin-8 (Homo sapiens, UniProt P10145); assay: Dose Response confirmation of uHTS small molecule hits for cystic fibrosis induced NFkb Inhibitors in a PAF-induced IL8 counterscreen.; type: functional; details: read-out: IC50_Mean
# T5 sequence (P10145 whole entry): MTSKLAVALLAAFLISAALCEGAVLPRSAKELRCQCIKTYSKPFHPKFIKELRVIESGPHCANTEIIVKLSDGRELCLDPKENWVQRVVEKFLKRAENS
# [26] = target: Heat shock protein HSP 90-alpha (Homo sapiens, UniProt P07900); type: functional, organism-based
# [27] = target: Cytochrome P450 2C9 (Homo sapiens, UniProt P11712)
# [28] = target: T6, COUP transcription factor 2 (Homo sapiens, UniProt P24468); assay: Luminescence-based cell-based high throughput dose response assay to identify inhibitors of COUP-TFII (NR2F2).; type: functional;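 note: HEK293 cells transiently cotransfected with COUP-TFII expression vector and reporter; luciferase reporter luminescence driven by COUP-TFII from the pX2-168 reporter plasmid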
# T6 sequence (P24468 whole entry): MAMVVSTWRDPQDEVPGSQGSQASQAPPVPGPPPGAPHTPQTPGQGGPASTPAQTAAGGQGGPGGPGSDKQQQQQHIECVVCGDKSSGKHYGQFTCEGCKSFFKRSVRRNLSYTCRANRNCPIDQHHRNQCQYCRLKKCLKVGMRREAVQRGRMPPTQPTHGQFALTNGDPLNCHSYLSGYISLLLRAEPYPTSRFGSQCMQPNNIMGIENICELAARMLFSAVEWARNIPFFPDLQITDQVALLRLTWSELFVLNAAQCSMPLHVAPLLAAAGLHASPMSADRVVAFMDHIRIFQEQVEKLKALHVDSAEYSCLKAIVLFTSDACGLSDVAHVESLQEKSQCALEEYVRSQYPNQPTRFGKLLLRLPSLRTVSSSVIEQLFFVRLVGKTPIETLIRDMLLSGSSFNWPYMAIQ
# [29] = test system: HeLa; assay: viability loss in HeLa cells – cell-based, ATP luminescence, cherry-pick samples, cytotoxicity control, dose response (AID 687004); type: functional; details: Homo sapiens
# [30] = target: Paired box protein Pax-8 (Homo sapiens, UniProt Q06710); assay: PAX8 transcriptional activity inhibition in RMG-I – RMG-I cells, luciferase, cherry-pick, dose response (AID 687027); type: functional, cell-based;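 note: luciferase reporter driven by Pax8 target thyroperoxidase promoter measured by SteadyGlo luminescence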
# [31] = OVCAR-3 cell viability loss – plate reader, dry powder samples, PAX8 inhibitor project, dose response (AID 743044); type: functional, cell-based
# [32] = A2780 cell killing – plate reader, dry powder samples, cytotoxicity control, dose response (AID 743046); type: functional, cell-based
# [33] = OVCAR8 cell viability loss – plate reader, dry powder samples, PAX8 project, dose response (AID 743197); type: functional, cell-based; details: OVCAR-8
# [34] = cells
# [35] = target: Major prion protein (Homo sapiens, UniProt P04156); type: functional, cell-based
# [36] = target: Mu-type opioid receptor (Homo sapiens, UniProt P35372); type: functional, cell-based;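 note: U2OS cells with beta-arrestin recruitment to OPRM1 by beta-gal complementation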
# [37] = target: 5-hydroxytryptamine receptor 2A (Mus musculus, UniProt P35363); type: functional, cell-based;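 note: CHO-K1 cells with tagged receptor and beta-arrestin; agonist potency measured as compound-induced activation of the receptor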
compound,measurement,setting,value
CN(C(=O)C12CC3CC(CC(C3)C1)C2)C1CCS(=O)(=O)C1 (centres undefined),AC50,[1],1.42 µM (active)
COc1cc(/C=c2\sc3n(c2=O)C(c2ccccc2)C(c2ccccc2)=NN=3)ccc1O (centres undefined),AC50,[2],38.5 µM (active)
same,AC50,[3],4.58 µM (active)
same,IC50,[4],19.7 µM (active)
same,IC50,[5],57.3 µM (active)
Cc1ccc(NC(=S)N(CCCN2CCOCC2)Cc2ccccn2)cc1,AC50,[6],50.9 µM (active)
O=C1NC[C@H](Cc2ccccc2)N(C[C@H]2CCCN2C[C@H](Cc2ccccc2)N2C[C@H](Cc3ccc(O)cc3)N(CC3CCCCCC3)C(=O)C2=O)C1=O,IC50,[4],11.6 µM (active)
same,IC50,[5],37.5 µM (active)
O=C(Nc1cccc(C(F)(F)F)c1)c1cccc(NS(=O)(=O)c2ccc(O)c(C(=O)O)c2)c1,AC50,[7],40.3 µM (active)
CC(C)N1C[C@H](CN(C)Cc2ccc(Cl)cc2)Oc2c(NC(=O)c3ccncc3)cccc2C1=O,AC50,[8],3.93 nM (active)
CCc1nc(N)nc(N)c1-c1ccc(Cl)c(N=[N+]=[N-])c1,IC50,[9],24.1 µM (inactive)
same,IC50,[10],13.4 µM (active)
Cc1c(/N=C(\S)N/N=C/C=C/c2ccc([N+](=O)[O-])cc2)c(=O)n(-c2ccccc2)n1C,IC50,[11],> 123 µM (inactive)
same,IC50,[12],> 123 µM (inactive)
C=CCn1c(O)c(N=NC(=O)CNC(=O)/C=C/c2ccco2)c2ccccc21,IC50,[13],> 94.1 µM (inactive)
CC(C)N1CC2(CN(CCc3ccccc3)C2)Oc2c(NC(=O)c3ccncc3)cccc2C1=O,AC50,[8],252 nM (active)
CC(C)(C)Nc1cc(NC(=O)c2ccccc2)ncn1,IC50,[14],> 21.8 µM (inactive)
O=C(Nc1cc(N2CCCCC2)ncn1)c1cccs1,IC50,[14],> 21.8 µM (inactive)
O=C(CN1CCC(c2nc3ccccc3s2)CC1)NCc1cccs1,EC50,[15],> 30 µM (not active)
same,IC50,[16],1.39 µM (active)
same,EC50,[17],> 29.9 µM (inactive)
same,EC50,[18],646 nM (active)
O=C1NN(c2ccccc2)C(=O)/C1=C/c1ccc(-c2ccc(C(=O)O)cc2)o1,IC50,[19],> 100 µM (active)
same,AC50,[20],110 nM (active)
same,IC50,[21],20.6 µM (active)
same,IC50,[22],4.57 µM (active)
same,IC50,[23],10.2 µM (active)
O=[N+]([O-])c1cc(F)c2cccnc2c1O,AC50,[7],14.3 µM (active)
same,IC50,[24],12 µM (active)
Cc1ccc(-c2onc3ccc(C(=O)/C=C/N(C)C)cc23)cc1,IC50,[25],17.9 µM (inactive)
same,AC50,[26],4.11 µM (active)
NC(=O)c1nnn(Cc2cc(Cl)c(C(=O)c3ccc(Cl)cc3)c(Cl)c2)c1N [CARBOXYAMIDOTRIAZOLE],IC50,[16],0.303 µM (active)
same,EC50,[17],> 29.9 µM (inactive)
same,AC50,[27],inconclusive
same,IC50,[28],9.21 µM (active)
CNC(=S)NNC(=O)c1cccn(Cc2ccccc2)c1=O,IC50,[13],> 94.2 µM (inactive)
C[C@@H]1CCCCO[C@H](CN(C)Cc2ccc3c(c2)OCO3)[C@H](C)CN([C@H](C)CO)C(=O)c2cc(NC(=O)Nc3cccc4ccccc34)ccc2O1,AC50,[29],20.1 µM (active)
Cc1ccc(-n2ncc3c(SCC(N)=O)ncnc32)cc1C,AC50,[29],> 52 µM (inactive)
COc1ccc(CCN(C)C(=O)CN2C(=O)NC3(CCCc4ccccc43)C2=O)cc1OC (centres undefined),IC50,[11],> 122 µM (inactive)
same,IC50,[12],> 122 µM (inactive)
COc1ccccc1C#Cc1ccc([C@H]2[C@H](C#N)N(C(=O)C3CC3)[C@H]2CO)cc1,AC50,[30],6.37 µM (active)
same,AC50,[31],15.1 µM (active)
same,AC50,[32],698 nM (active)
same,AC50,[6],1.68 µM (active)
same,AC50,[33],10.7 µM (active)
CCOc1cc(C2Nc3ccccc3C(=O)N2c2ccccc2)c(Br)cc1OCC(=O)O (centres undefined),IC50,[34],> 138 µM (inactive)
same,IC50,[35],10.1 µM (inactive)
Fc1ccc(F)c(CN2CCN(c3ncccn3)CC2)c1,EC50,[36],92.4 µM (inactive)
same,EC50,[37],323 nM (active)
O=C(Nc1nc2ccsc2c(=O)s1)c1ccc(F)cc1,IC50,[9],32 µM (inactive)
same,IC50,[22],5.11 µM (active)
same,IC50,[10],11 µM (active)
CC(C)c1nc(SCC(=O)Nc2nccs2)c2ccccc2n1,IC50,[34],> 138 µM (inactive)
same,IC50,[35],2.4 µM (active)

# From ChEMBL document CHEMBL1201862, “PubChem BioAssay data set” (2004)
